Source: patent US12662451B2, “Chemical compounds and uses thereof” (GLAXOSMITHKLINE INTELLECTUAL PROPERTY (NO.4) LIMITED, priority 2023, dated 2026)

What was measured:
[1] = target: T1, recombinant full-length WRN protein (1-1432) (Homo sapiens, UniProt Q14191); test: WRN unwinding activity, fluorogenic 384-well assay (Example A); type: biochemical; settings: WRN unwinding activity, 4 hr; Table 2; read-out: 4 hr UNW pIC50 (converted)
T1 construct: recombinant full-length WRN protein (1-1432)
Procedure, shortened: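 200 pM enzyme (2× stock) preincubated with compound 4 h at ambient temperature, then 200 μM ATP and 12 nM quenched TAMRA-labelled dsDNA (2× stocks) added for 60 min; EDTA-quenched. Buffer 25 mM Tris pH 8.0, 5 mM NaCl, 2 mM MgCl2. Fluorescence at 525/598 nm; pIC50 from four-parameter fit.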

[2] = tested on: SW48 human colorectal cancer cells (MSI-H cancer cells); test: SW48 cell viability, CellTiter-Glo, 120 hours (Example B); settings: Homo sapiens, SW48, 120 h, read-out: SW48 pCC50, SW48 cell viability, 120 hours incubation (converted); Table 2

T1 sequence (Q14191 whole entry): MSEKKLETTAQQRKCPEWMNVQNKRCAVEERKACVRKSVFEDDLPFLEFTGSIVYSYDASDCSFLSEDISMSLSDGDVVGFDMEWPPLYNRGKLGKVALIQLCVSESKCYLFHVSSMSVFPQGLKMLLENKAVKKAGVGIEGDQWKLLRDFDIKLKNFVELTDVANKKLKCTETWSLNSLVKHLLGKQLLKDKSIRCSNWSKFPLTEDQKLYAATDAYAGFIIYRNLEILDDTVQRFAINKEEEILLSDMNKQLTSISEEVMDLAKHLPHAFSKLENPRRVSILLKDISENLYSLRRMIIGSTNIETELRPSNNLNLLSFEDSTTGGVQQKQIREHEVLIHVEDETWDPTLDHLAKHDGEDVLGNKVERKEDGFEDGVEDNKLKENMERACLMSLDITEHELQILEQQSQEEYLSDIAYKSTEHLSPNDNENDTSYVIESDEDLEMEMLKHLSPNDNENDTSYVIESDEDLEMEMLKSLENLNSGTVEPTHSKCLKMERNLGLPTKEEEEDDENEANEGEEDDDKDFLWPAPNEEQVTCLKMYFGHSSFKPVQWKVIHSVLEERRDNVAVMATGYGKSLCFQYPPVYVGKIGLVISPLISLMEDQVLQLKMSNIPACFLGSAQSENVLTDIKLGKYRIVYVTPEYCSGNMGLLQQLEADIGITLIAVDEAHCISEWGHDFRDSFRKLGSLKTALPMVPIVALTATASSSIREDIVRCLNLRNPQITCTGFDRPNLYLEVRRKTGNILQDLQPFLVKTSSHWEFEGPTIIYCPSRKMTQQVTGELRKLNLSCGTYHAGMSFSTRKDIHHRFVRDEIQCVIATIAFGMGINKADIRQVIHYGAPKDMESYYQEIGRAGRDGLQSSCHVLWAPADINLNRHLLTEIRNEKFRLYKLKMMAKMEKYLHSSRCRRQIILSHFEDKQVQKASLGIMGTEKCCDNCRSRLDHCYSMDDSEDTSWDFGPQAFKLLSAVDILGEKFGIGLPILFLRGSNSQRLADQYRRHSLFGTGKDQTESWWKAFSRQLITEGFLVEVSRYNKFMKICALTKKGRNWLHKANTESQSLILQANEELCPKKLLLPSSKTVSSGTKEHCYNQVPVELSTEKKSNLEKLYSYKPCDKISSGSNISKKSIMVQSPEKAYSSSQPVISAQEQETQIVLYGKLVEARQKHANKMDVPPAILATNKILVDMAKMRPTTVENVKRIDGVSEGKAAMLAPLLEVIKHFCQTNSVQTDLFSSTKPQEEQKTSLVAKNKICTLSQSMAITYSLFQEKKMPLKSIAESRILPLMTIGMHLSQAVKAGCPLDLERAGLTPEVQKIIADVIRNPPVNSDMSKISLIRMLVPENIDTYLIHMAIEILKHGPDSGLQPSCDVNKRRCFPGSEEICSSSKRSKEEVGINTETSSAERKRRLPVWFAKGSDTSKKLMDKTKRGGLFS

`O=C(O)[C@@H]1[C@@H](c2ccc(-c3cncc(F)c3)cc2)CCC[C@H]1C(=O)Nc1ccc(C(F)(F)F)cc1F` [Example 27, (1R,2R,6S)-2-((2-fluoro-4-(trifluoromethyl)phenyl)carbamoyl)-6-(4-(5-fluoropyridin-3-yl)phenyl)cyclohexane-1-carboxylic acid] was tested, and the IC50 [1] was 0.0126 µM and the CC50 [2] was 3.98 µM.
`O=C(O)[C@@H]1[C@@H](c2ccc(-c3cccs3)cc2)CCC[C@H]1C(=O)Nc1ccc(C(F)(F)F)cc1F` [Example 31, (1R,2R,6S)-2-((2-fluoro-4-(trifluoromethyl)phenyl)carbamoyl)-6-(4-(thiophen-2-yl)phenyl)cyclohexane-1-carboxylic acid] showed an IC50 [1] of 0.1 µM and a CC50 [2] of 10 µM.
With `N#Cc1cscc1-c1ccc([C@H]2CCC[C@@H](C(=O)Nc3ccc(C(F)(F)F)cc3F)[C@@H]2C(=O)O)cc1` [Example 32, (1R,2S,6R)-2-(4-(4-cyanothiophen-3-yl)phenyl)-6-((2-fluoro-4-(trifluoromethyl)phenyl)carbamoyl)cyclohe xane-1-carboxylic acid] the IC50 [1] was 0.0794 µM and the CC50 [2] was 10 µM.
Compound `O=C(O)[C@@H]1[C@@H](c2ccc(-c3cccc4sccc34)cc2)CCC[C@H]1C(=O)Nc1ccc(C(F)(F)F)cc1F` [Example 35, (1R,2S,6R)-2-(4-(benzo[b]thiophen-4-yl)phenyl)-6-((2-fluoro-4-(trifluoromethyl)phenyl)carbamoyl) cyclohexane-1-carboxylic acid] has an IC50 [1] of 2 µM and a CC50 [2] of 6.31 µM.
`O=C(O)[C@@H]1[C@@H](c2ccc(-c3nsc4ccccc34)cc2)CCC[C@H]1C(=O)Nc1ccc(C(F)(F)F)cc1F` [Example 36, (1R,2S,6R)-2-(4-(benzo[d]isothiazol-3-yl)phenyl)-6-((2-fluoro-4-(trifluoromethyl)phenyl)carbamoyl)cyclohe xane-1-carboxylic acid] was tested, and the IC50 [1] was 0.631 µM and the CC50 [2] was 5.01 µM.
`O=C(O)[C@@H]1[C@@H](c2ccc(-c3ccc(F)nn3)cc2)CCC[C@H]1C(=O)Nc1ccc(C(F)(F)F)cc1F` [Example 37] was tested, and the IC50 [1] was 0.002 µM and the CC50 [2] was 2.51 µM.
`Cc1nnc(-c2ccc([C@H]3CCC[C@@H](C(=O)Nc4ccc(C(F)(F)F)cc4F)[C@@H]3C(=O)O)cc2)s1` [Example 41, (1R,2R,6S)-2-((2-fluoro-4-(trifluoromethyl)phenyl)carbamoyl)-6-(4-(5-methyl-1,3,4-thiadiazol-2-yl)phenyl)cyclohexane-1-carboxylic acid] was tested, and the IC50 [1] was 0.00501 µM and the CC50 [2] was 3.98 µM.
`O=C(O)[C@@H]1[C@@H](c2ccc(-c3cnoc3)cc2)CCC[C@H]1C(=O)Nc1ccc(C(F)(F)F)cc1F` [Example 48, (1R,2R,6S)-2-((2-fluoro-4-(trifluoromethyl)phenyl)carbamoyl)-6-(4-(isoxazol-4-yl)phenyl)cyclohexane-1-carboxylic acid] was tested, and the IC50 [1] was 0.0158 µM and the CC50 [2] was 5.01 µM.
Compound `Cc1oncc1-c1ccc([C@H]2CCC[C@@H](C(=O)Nc3ccc(C(F)(F)F)cc3F)[C@@H]2C(=O)O)cc1` [Example 53, (1R,2R,6S)-2-((2-fluoro-4-(trifluoromethyl)phenyl)carbamoyl)-6-(4-(5-methylisoxazol-4-yl)phenyl)cyclohexane-1-carboxylic acid] has an IC50 [1] of 0.0158 µM and a CC50 [2] of 7.94 µM.
In the case of `N#Cc1ncc(-c2ccc([C@H]3CCC[C@@H](C(=O)Nc4ccc(C(F)(F)F)cc4F)[C@@H]3C(=O)O)cc2)cn1` [Example 54, (1R,2S,6R)-2-(4-(2-cyanopyrimidin-5-yl)phenyl)-6-((2-fluoro-4-(trifluoromethyl)phenyl)carbamoyl)cyclohexane-1-carboxylic acid], the IC50 [1] is reported as 0.00501 µM and the CC50 [2] is reported as 7.94 µM.
Work on `N#Cc1ccc(-c2ccc([C@H]3CCC[C@@H](C(=O)Nc4ccc(C(F)(F)F)cc4F)[C@@H]3C(=O)O)cc2)nn1` [Example 55, (1R,2S,6R)-2-(4-(6-cyanopyridazin-3-yl)phenyl)-6-((2-fluoro-4-(trifluoromethyl)phenyl)carbamoyl) cyclohexane-1-carboxylic acid] yielded an IC50 [1] of 0.00251 µM and a CC50 [2] of 10 µM.
`O=C(O)[C@@H]1[C@@H](c2ccc(C3=CCS(=O)(=O)C3)cc2)CCC[C@H]1C(=O)Nc1ccc(C(F)(F)F)cc1F` [Example 58, (1R,2S,6R)-2-(4-(1,1-dioxido-2,5-dihydrothiophen-3-yl)phenyl)-6-((2-fluoro-4-(trifluoromethyl)phenyl)carbamoyl) cyclohexane-1-carboxylic acid] was tested, and the IC50 [1] was 0.0316 µM and the CC50 [2] was 15.8 µM.
For `CN(c1ccc([C@H]2CCC[C@@H](C(=O)Nc3ccc(C(F)(F)F)cc3F)[C@@H]2C(=O)O)cc1)S(=O)(=O)c1ccc2occc2c1` [Example 93, (1R,2R,6S)-2-((2-fluoro-4-(trifluoromethyl)phenyl)carbamoyl)-6-(4-(N-methylbenzofuran-5-sulfonamido)phenyl)cyclohexane-1-carboxylic acid], the IC50 [1] was 0.00251 µM and the CC50 [2] was 2.51 µM.
Work on `CN(c1ccc([C@H]2CCC[C@@H](C(=O)Nc3ccc(C(F)(F)F)cc3F)[C@@H]2C(=O)O)cc1)S(=O)(=O)c1cccnc1` [Example 95, (1R,2R,6S)-2-((2-fluoro-4-(trifluoromethyl)phenyl)carbamoyl)-6-(4-(N-methylpyridine-3-sulfonamido)phenyl)cyclohexane-1-carboxylic acid] yielded an IC50 [1] of 0.00251 µM and a CC50 [2] of 3.16 µM.
`CN(c1ccc([C@H]2CCC[C@@H](C(=O)Nc3ccc(C(F)(F)F)cc3F)[C@@H]2C(=O)O)cc1)S(=O)(=O)c1ccc2oc(=O)n(C)c2c1` [Example 100, (1R,2S,6R)-2-(4-((N,3-dimethyl-2-oxo-2,3-dihydrobenzo[d]oxazole)-5-sulfonamido)phenyl)-6-((2-fluoro-4-(trifluoromethyl)phenyl)carbamoyl)cyclohexane-1-carboxylic acid] showed an IC50 [1] of 0.00501 µM and a CC50 [2] of 3.98 µM.
For `CN(c1ccc([C@H]2CCC[C@@H](C(=O)Nc3ccc(C(F)(F)F)cc3F)[C@@H]2C(=O)O)cc1)S(=O)(=O)c1ccc2nc(O)sc2c1` [Example 102, (1R,2R,6S)-2-((2-fluoro-4-(trifluoromethyl)phenyl)carbamoyl)-6-(4-((2-hydroxy-N-methylbenzo[d]thiazole)-6-sulfonamido)phenyl)cyclohexane-1-carboxylic acid], the IC50 [1] was 0.00631 µM and the CC50 [2] was 10 µM.
For `Cc1cc(C)c(S(=O)(=O)N(C)c2ccc([C@H]3CCC[C@@H](C(=O)Nc4ccc(C(F)(F)F)cc4F)[C@@H]3C(=O)O)cc2)c(C)c1` [Example 103, (1R,2R,6S)-2-((2-fluoro-4-(trifluoromethyl)phenyl)carbamoyl)-6-(4-((N,2,4,6-tetramethylphenyl)sulfonamido)phenyl)cyclohexane-1-carboxylic acid], the IC50 [1] was 0.00158 µM and the CC50 [2] was 12.6 µM.
`CN(c1ccc([C@H]2CCC[C@@H](C(=O)Nc3ccc(C(F)(F)F)cc3F)[C@@H]2C(=O)O)cc1)S(=O)(=O)c1c(Cl)cc(C(F)(F)F)cc1Cl` [Example 104, (1R,2S,6R)-2-(4-((2,6-dichloro-N-methyl-4-(trifluoromethyl)phenyl)sulfonamido)phenyl)-6-((2-fluoro-4-(trifluoromethyl)phenyl)carbamoyl)cyclohexane-1-carboxylic acid] showed an IC50 [1] of 0.0398 µM and a CC50 [2] of 3.98 µM.
Compound `CN(c1ccc([C@H]2CCC[C@@H](C(=O)Nc3ccc(C(F)(F)F)cc3F)[C@@H]2C(=O)O)cc1)S(=O)(=O)c1ccc2ocnc2c1` [Example 106, (1R,2R,6S)-2-((2-fluoro-4-(trifluoromethyl)phenyl)carbamoyl)-6-(4-(N-methylbenzo[d]oxazole-5-sulfonamido)phenyl)cyclohexane-1-carboxylic acid] has an IC50 [1] of 0.00316 µM and a CC50 [2] of 1.58 µM.
For `CN(c1ccc([C@H]2CCC[C@@H](C(=O)Nc3ccc(C(F)(F)F)cc3F)[C@@H]2C(=O)O)cc1)S(=O)(=O)c1ccc2c(c1)CN(C(=O)C(F)(F)F)CC2` [Example 108, (1R,2R,6S)-2-((2-fluoro-4-(trifluoromethyl)phenyl)carbamoyl)-6-(4-((N-methyl-2-(2,2,2-trifluoroacetyl)-1,2,3,4-tetrahydroisoquinoline)-7-sulfonamido)phenyl)cyclohexane-1-carboxylic acid], the IC50 [1] was 0.00316 µM and the CC50 [2] was 2 µM.
Compound `CN(c1ccc([C@H]2CCC[C@@H](C(=O)Nc3ccc(C(F)(F)F)cc3F)[C@@H]2C(=O)O)cc1)S(=O)(=O)c1ccc2c(c1)CCN(C(=O)C(F)(F)F)C2` [Example 111, (1R,2R,6S)-2-((2-fluoro-4-(trifluoromethyl)phenyl)carbamoyl)-6-(4-((N-methyl-2-(2,2,2-trifluoroacetyl)-1,2,3,4-tetrahydroisoquinoline)-6-sulfonamido)phenyl)cyclohexane-1-carboxylic acid] has an IC50 [1] of 0.00251 µM and a CC50 [2] of 1.58 µM.
For `CN1CCc2c(cccc2S(=O)(=O)N(C)c2ccc([C@H]3CCC[C@@H](C(=O)Nc4ccc(C(F)(F)F)cc4F)[C@@H]3C(=O)O)cc2)C1` [Example 114, (1R,2S,6R)-2-(4-((N,2-dimethyl-1,2,3,4-tetrahydroisoquinoline)-5-sulfonamido)phenyl)-6-((2-fluoro-4-(trifluoromethyl)phenyl)carbamoyl)cyclohexane-1-carboxylic acid], the IC50 [1] was 0.00794 µM and the CC50 [2] was 2.51 µM.
`CN(c1ccc([C@H]2CCC[C@@H](C(=O)Nc3ccc(C(F)(F)F)cc3F)[C@@H]2C(=O)O)cc1)S(=O)(=O)c1ccc(C2CCN(C(=O)OC(C)(C)C)CC2)cc1` [Example 115, (1R,2S,6R)-2-(4-((3-(1-(tert-butoxycarbonyl)piperidin-4-yl)-N-methylphenyl)sulfonamido)phenyl)-6-((2-fluoro-4-(trifluoromethyl)phenyl)carbamoyl)cyclohexane-1-carboxylic acid] showed an IC50 [1] of 0.00501 µM and a CC50 [2] of 1.26 µM.
